Drawing on doi:10.1101/2022.09.20.508773v1 (biorxiv, 2022), this text covers Kd for one compound.

This test concerns the target T1, NΔ47-TPH2-R (Homo sapiens, UniProt Q8IWU9).
T1 sequence (Q8IWU9 48-145): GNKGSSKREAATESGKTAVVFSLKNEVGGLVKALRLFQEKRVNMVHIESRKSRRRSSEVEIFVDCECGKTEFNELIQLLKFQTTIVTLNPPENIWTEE
The experiment in a line: protein-observed NMR titration, 1H-15N HSQC, 2D line-shape analysis. It is filed as binding.

Turning to `N[C@@H](Cc1ccccc1)C(=O)O` [L-Phe], the Kd (commonly the concentration at which binding is half-saturated) came out at 40.8 ± 0.8 µM.
